Test results: ChEMBL document CHEMBL5247585, “Design, synthesis, and evaluation of 4(1H)-quinolinone and urea derivatives as KRASG12C inhibitors with potent antitumor activity against KRAS-mutant non-small cell lung cancer” (Eur J Med Chem, 2022)
pIC50: −log10 of the molar value. Active and inactive are the calls of the source. The rule behind the calls is not given here.

Experiments:
[1] = tested on: NCI-H23; assay: Antiproliferative activity against human NCI-H23 cells harboring KRAS G12C mutant assessed as reduction in cell viability incubated for 72 hrs by MTT assay; type: functional, cell-based; conditions: NCI-H23, 72 h
[2] = tested on: A549; assay: Antiproliferative activity against human A549 cells harboring KRAS G12S mutant assessed as reduction in cell viability incubated for 72 hrs by MTT assay; type: functional, cell-based; conditions: A549, 72 h
[3] = tested on: NCI-H2228; assay: Antiproliferative activity against human NCI-H2228 cells harboring wild type KRAS assessed as reduction in cell viability incubated for 72 hrs by MTT assay; type: functional, cell-based; conditions: NCI-H2228, 72 h
[4] = tested on: NCI-H358; assay: Antiproliferative activity against human NCI-H358 cells harboring KRAS G12C mutant assessed as reduction in cell viability incubated for 72 hrs by MTT assay; type: functional, cell-based; conditions: NCI-H358, 72 h
[5] = Selectivity index, ratio of IC50 for human A549 cells harboring KRAS G12S mutant to IC50 for human NCI-H23 cells harboring KRAS G12C mutant; type: functional
[6] = Selectivity index, ratio of IC50 for human NCI-H2228 cells harboring wild type KRAS to IC50 for human NCI-H358 cells harboring KRAS G12C mutant; type: functional
[7] = Selectivity index, ratio of IC50 for human A549 cells harboring KRAS G12S mutant to IC50 for human NCI-H358 cells harboring KRAS G12C mutant; type: functional
[8] = Selectivity index, ratio of IC50 for human NCI-H2228 cells harboring wild type KRAS to IC50 for human NCI-H23 cells harboring KRAS G12C mutant; type: functional
[9] = tested on: GTPase KRas (Homo sapiens), P01116 [G12C]; assay: (§1) Inhibition of 6His tagged Mant-GDP loaded human KRAS G12C mutant (1 to 169 residues) expressed in Escherichia coli BL21 (DE3) cells assessed as inhibition of SOS1-mediated nucleotide exchange at 10 uM preincubated with compound for 1 hrs followed by addition of GTP and SOS1 protein and measured every 90 sec for 2 hrs by fluorescence based assay; conditions: time 3.0 hrs
[10] = tested on: NCI-H441; assay: Antiproliferative activity against human NCI-H441 cells harboring KRAS G12V mutant assessed as reduction in cell viability incubated for 72 hrs by MTT assay; type: functional, cell-based; conditions: NCI-H441, 72 h
[11] = target: GTPase KRas (Homo sapiens) (UniProt P01116); assay: Inhibition of KRAS signaling in human NCI-H2228 cells harboring wildtype KRAS at 0.5 to 8 uM incubated for 6 hrs by Western blot analysis; type: cell-based; conditions: dose 0.5-8 µM
[12] = tested on: GTPase KRas (Homo sapiens), P01116 [G12C]; assay: as §1, with “[…]” for “SOS1-mediated”, “EDTA” for “SOS1 protein”; conditions: time 3.0 hrs
[13] = Selectivity index, ratio of IC50 for human MRC5 cells to IC50 for human NCI-H358 cells harboring KRAS G12C mutant
[14] = tested on: NCI-H358; assay: Induction of apoptosis in human NCI-H358 cells assessed as fold change in cleaved caspase-3 level at 0.5 to 8 uM incubated for 6 hrs by Western blot analysis; type: functional; conditions: dose 0.5-8 µM
[15] = tested on: NCI-H358; assay: Antitumor activity against human NCI-H358 cells harboring KRAS G12C mutant xenografted in BALB/c mouse assessed as tumor growth inhibition at 10 mg/kg, ip administered for 21 days; type: functional, organism-based; conditions: time 21.0 day
[16] = Toxicity in BALB/c mouse xenografted with human NCI-H358 cells harboring KRAS G12C mutant assessed as effect on body weight at 10 to 15 mg/kg, ip administered for 21 days; type: organism-based; conditions: in vivo, 504 h, dose 10-15 mg/kg, time 21 day
[17] = tested on: NCI-H358; assay: Inhibition of KRAS signaling in human NCI-H358 cells harboring KRAS G12C mutant assessed as decrease in ERK phosphorylation level at 0.5 to 8 uM incubated for 6 hrs by Western blot analysis relative to control; type: cell-based; conditions: dose 0.5-8 µM
[18] = target: GTPase KRas (Homo sapiens) (UniProt P01116); assay: Covalent binding affinity to 6his tagged GDP bound human wildtype KRAS expressed in Escherichia coli BL21 (DE3) cells at 200 uM incubated for 24 hrs by LC-MS/MS analysis
[19] = tested on: NCI-H358; assay: Antitumor activity against human NCI-H358 cells harboring KRAS G12C mutant xenografted in BALB/c mouse assessed as increase in cleaved caspase-3 level at 10 to 15 mg/kg, ip administered for 21 days by IHC staining analysis; type: functional, organism-based; conditions: dose 10-15 mg/kg, time 21.0 day
[20] = tested on: NCI-H358; assay: Inhibition of KRAS signaling in human NCI-H358 cells harboring KRAS G12C mutant assessed as decrease in AKT phosphorylation level at 0.5 to 8 uM incubated for 6 hrs by Western blot analysis relative to control; type: cell-based; conditions: dose 0.5-8 µM
[21] = tested on: GTPase KRas (Homo sapiens), P01116 [G12C]; assay: Covalent binding affinity to 6His tagged GDP bound human KRAS G12C mutant (1 to 169 residues) expressed in Escherichia coli BL21 (DE3) cells at 200 uM incubated for 24 hrs by LC-MS /MS analysis
[22] = tested on: NCI-H358; assay: Antitumor activity against human NCI-H358 cells harboring KRAS G12C mutant xenografted in BALB/c mouse assessed as reduction in tumor growth at 10 to 15 mg/kg, ip administered for 21 days by Ki67 staining based analysis; type: functional, organism-based; conditions: dose 10-15 mg/kg, time 21.0 day
[23] = tested on: GTPase KRas (Homo sapiens), P01116 [G12C]; assay: In vivo inhibition of KRAS signaling in BALB/C mouse xenografted with human NCI-H358 cells harboring KRAS G12C mutant assessed as decrease in ERK phosphorylation in tumor at 10 to 15 mg/kg, ip administered for 21 days by IHC staining based analysis; type: functional, organism-based; conditions: dose 10-15 mg/kg, time 21.0 day
[24] = tested on: NCI-H358; assay: Antitumor activity against human NCI-H358 cells harboring KRAS G12C mutant xenografted in BALB/c mouse assessed as tumor growth inhibition at 15 mg/kg, ip administered for 21 days; type: functional; conditions: NCI-H358, 504 h, time 21 day, read-out: TGI
[25] = Cytotoxicity against human MRC5 cells assessed as reduction in cell viability incubated for 72 hrs by MTT assay; type: toxicity, cell-based
[26] = tested on: SK-LU-1; assay: Antiproliferative activity against human SK-LU-1 cells harboring KRAS G12D mutant assessed as reduction in cell viability incubated for 72 hrs by MTT assay; type: functional, cell-based; conditions: SK-LU-1, 72 h

C=CC(=O)NC1CCN(C(=O)c2cc(=O)c3cc(Cl)c(I)cc3[nH]2)CC1
pIC50 [1]: 4.45
pIC50 [2]: 4.64
pIC50 [3]: 4.50
pIC50 [4]: 4.72

O=C(CCl)NC1CCN(C(=O)c2cc(=O)c3cc(Cl)c(I)cc3[nH]2)CC1
Ratio IC50 [5]: 2
Ratio IC50 [6]: 2
pIC50 [1]: 5.57
pIC50 [2]: 5.01
pIC50 [3]: 5.07
pIC50 [4]: 5.35
Ratio IC50 [7]: 2
Ratio IC50 [8]: 2

C=CC(=O)N1CCC(NC(=O)Nc2ccc(Cl)c(Cl)c2)CC1
pIC50 [1]: < 4.00
pIC50 [2]: < 4.00
pIC50 [3]: 4.27
pIC50 [4]: < 4.00

C=CC(=O)N1CC[C@H](NC(=O)c2cc(=O)c3cc(Cl)c(I)cc3[nH]2)C1
pIC50 [1]: 4.99
pIC50 [2]: 4.61
pIC50 [3]: 4.88
pIC50 [4]: 4.83

C=CC(=O)N1CCC(NC(=O)Nc2ccc(Cl)cc2)CC1
pIC50 [1]: < 4.00
pIC50 [2]: < 4.00
pIC50 [3]: < 4.00
pIC50 [4]: < 4.00

C=CC(=O)NC1CCN(C(=O)c2cc(=O)c3cc(Cl)c(C(F)(F)F)cc3[nH]2)CC1
pIC50 [1]: 5.09
pIC50 [2]: 4.34
pIC50 [3]: 4.37
pIC50 [4]: 4.73

C=CC(=O)N1CC[C@@H](NC(=O)Nc2ccc(Cl)c(C(F)(F)F)c2)C1
pIC50 [1]: 4.53
pIC50 [2]: < 4.00
pIC50 [3]: 4.24
pIC50 [4]: 4.42

O=C(CCl)N1CCN(C(=O)Nc2ccc(Cl)c(-c3ccccc3F)c2)CC1
inhibition [9]: Active
Ratio IC50 [5]: 7
pIC50 [10]: 5.36
inhibition [11]: inactive
inhibition [12]: inactive
Ratio IC50 [13]: 12
fold change (FC) [14]: 2
Ratio IC50 [6]: 7
TGI [15]: Active
Activity [16]: Non-Toxic
inhibition [17]: 40%
pIC50 [1]: 5.89
Activity [18]: inactive
Activity [19]: Active
inhibition [20]: 30%
Activity [21]: Active
Activity [22]: Active
inhibition [23]: Active
pIC50 [2]: 5.03
pIC50 [3]: 4.94
inhibition in vivo at 15 mg/kg [24]: 50%
pIC50 [4]: 6.30
IC50 at 72 h [25]: 6.1 µM
pIC50 [26]: 5.34
Ratio IC50 [7]: 7
Ratio IC50 [8]: 7

O=C(Nc1ccc(Cl)c(Cl)c1)NC1CCN(C(=O)CCl)CC1
pIC50 [1]: 5.32
pIC50 [2]: 5.13
pIC50 [3]: 5.04
pIC50 [4]: 5.26

C=CC(=O)NC1CCN(C(=O)c2cc(=O)c3ccccc3[nH]2)CC1
pIC50 [1]: < 4.00
pIC50 [2]: < 4.00
pIC50 [3]: < 4.00
pIC50 [4]: 4.35

C=CC(=O)NC1CCN(C(=O)c2cc(=O)c3cc(Cl)ccc3[nH]2)CC1
pIC50 [1]: 4.46
pIC50 [2]: < 4.00
pIC50 [3]: < 4.00
pIC50 [4]: 4.53

C=CC(=O)N1CC[C@H](NC(=O)Nc2ccc(Cl)c(C(F)(F)F)c2)C1
pIC50 [1]: 4.54
pIC50 [2]: < 4.00
pIC50 [3]: 4.42
pIC50 [4]: 4.64

O=C(Nc1ccc(Cl)cc1)NC1CCN(C(=O)CCl)CC1
inhibition [9]: Active
Ratio IC50 [5]: 3
inhibition [12]: inactive
Ratio IC50 [6]: 3
pIC50 [1]: 5.29
Activity [18]: inactive
Activity [21]: Active
pIC50 [2]: 4.76
pIC50 [3]: 4.85
pIC50 [4]: 5.42
Ratio IC50 [7]: 3
Ratio IC50 [8]: 3

O=C(Nc1ccc(Cl)c(C(F)(F)F)c1)NC1CCN(C(=O)CCl)CC1
inhibition [9]: Active
inhibition [12]: inactive
pIC50 [1]: 5.64
Activity [18]: inactive
Activity [21]: Active
pIC50 [2]: 5.10
pIC50 [3]: 4.97
pIC50 [4]: 5.51

C=CS(=O)(=O)NC1CCN(C(=O)CNc2cc(I)c(Cl)cc2OC)CC1
pIC50 [10]: 4.67
pIC50 [1]: 5.52
pIC50 [2]: 5.28
pIC50 [3]: 5.14
pIC50 [4]: 5.36
IC50 at 72 h [25]: 10.3 µM
pIC50 [26]: 4.64
